# Measurements: ChEMBL document CHEMBL1201862, “PubChem BioAssay data set” (2004)
#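 Growth conditions: 96-well plates. Treatment: test compound, 48 hours, 5 concentrations. Analysis: linear interpolation between bracketing concentrations; unreached endpoints set to highest concentration. Here, GI50 denotes the concentration required for 50% inhibition of growth.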 Activity calls are given as the source filed them. No stated cut-off is given here; in the data, active = GI50 up to about 1.1 µM and inactive = higher.
# Experiments:
# Test in all cases: NCI-60 cell line screen, 48 h
# DMS-114 = tested on: DMS-114
# K562 = tested on: K562
# SK-MEL-5 = tested on: SK-MEL-5
# HT-29 = tested on: HT-29
# NCI-H460 = tested on: NCI-H460
# NCI-H522 = tested on: NCI-H522
# SK-MEL-28 = tested on: SK-MEL-28
# SW-620 = tested on: SW-620
# HCC 2998 = tested on: HCC 2998
# OVCAR-4 = tested on: OVCAR-4
# MCF7 = tested on: MCF7
# Malme-3M = tested on: Malme-3M
# UACC-62 = tested on: UACC-62
# LOX IMVI = tested on: LOX IMVI
# SK-OV-3 = tested on: SK-OV-3
# CAKI-1 = tested on: CAKI-1
# HOP-62 = tested on: HOP-62
# CCRF-CEM = tested on: CCRF-CEM
# KM12 = tested on: KM12
# HCT-116 = tested on: HCT-116
# HOP-18 = tested on: HOP-18
# SF-295 = tested on: SF-295
# U-251 = tested on: U-251
# HCT-15 = tested on: HCT-15
# HL-60 = tested on: HL-60
# SK-MEL-2 = tested on: SK-MEL-2
# SF-268 = tested on: SF-268
# NCI/ADR-RES = tested on: NCI/ADR-RES
# NCI-H226 = tested on: NCI-H226
# UACC-257 = tested on: UACC-257
# DLD-1 = tested on: DLD-1
# HOP-92 = tested on: HOP-92
# NCI-H23 = tested on: NCI-H23
# SN12C = tested on: SN12C
# M19-MEL = tested on: M19-MEL
# RXF 393 = tested on: RXF 393
# OVCAR-3 = tested on: OVCAR-3
# OVCAR-8 = tested on: OVCAR-8
# EKVX = tested on: EKVX
# RPMI-8226 = tested on: RPMI-8226
# SNB-75 = tested on: SNB-75
# A549 = tested on: A549
# A498 = tested on: A498
# MOLT-4 = tested on: MOLT-4
# SNB-19 = tested on: SNB-19
# SF-539 = tested on: SF-539
# KM-20L2 = tested on: KM-20L2
# OVCAR-5 = tested on: OVCAR-5
# XF498 = tested on: XF498
# UO-31 = tested on: UO-31
# DMS-273 = tested on: DMS-273
# IGROV-1 = tested on: IGROV-1
# SNB-78 = tested on: SNB-78
# COLO 205 = tested on: COLO 205
# LXFL 529 = tested on: LXFL 529
# SR = tested on: SR
# ACHN = tested on: ACHN
# TK-10 = tested on: TK-10
# M14 = tested on: M14
# 786-0 = tested on: 786-0
smiles,measurement,setting,value
CN(C)CCNc1c([N+](=O)[O-])cc2c3c(cccc13)C(=O)N(CCN(C)C)C2=O,GI50,DMS-114,1.27 µM (inactive)
same,GI50,K562,0.556 µM (active)
same,GI50,SK-MEL-5,2.18 µM (inactive)
same,GI50,HT-29,0.61 µM (active)
same,GI50,NCI-H460,0.653 µM (active)
same,GI50,NCI-H522,1.25 µM (inactive)
same,GI50,SK-MEL-28,1.67 µM (inactive)
same,GI50,SW-620,0.593 µM (active)
same,GI50,HCC 2998,1.53 µM (inactive)
same,GI50,OVCAR-4,0.807 µM (active)
same,GI50,MCF7,1.22 µM (inactive)
same,GI50,Malme-3M,0.635 µM (active)
same,GI50,UACC-62,1.75 µM (inactive)
same,GI50,LOX IMVI,1.08 µM (active)
same,GI50,SK-OV-3,1.76 µM (inactive)
same,GI50,CAKI-1,2.13 µM (inactive)
same,GI50,HOP-62,2.03 µM (inactive)
same,GI50,CCRF-CEM,0.893 µM (active)
same,GI50,KM12,8.18 µM (inactive)
same,GI50,HCT-116,0.552 µM (active)
same,GI50,HOP-18,1.52 µM (inactive)
same,GI50,SF-295,1.24 µM (inactive)
same,GI50,U-251,1.82 µM (inactive)
same,GI50,HCT-15,1.7 µM
same,GI50,HL-60,1.68 µM (inactive)
same,GI50,SK-MEL-2,1.77 µM (inactive)
same,GI50,SF-268,2.2 µM (inactive)
same,GI50,NCI/ADR-RES,1.54 µM (inactive)
same,GI50,NCI-H226,> 100 µM (inactive)
same,GI50,UACC-257,2.08 µM (inactive)
same,GI50,DLD-1,1.52 µM (inactive)
same,GI50,HOP-92,0.587 µM (active)
same,GI50,NCI-H23,1.78 µM (inactive)
same,GI50,SN12C,1.46 µM (inactive)
same,GI50,M19-MEL,1.6 µM (inactive)
same,GI50,RXF 393,1.42 µM (inactive)
same,GI50,OVCAR-3,1.79 µM (inactive)
same,GI50,OVCAR-8,1.05 µM (active)
same,GI50,EKVX,2.15 µM (inactive)
same,GI50,RPMI-8226,2.33 µM (inactive)
same,GI50,SNB-75,1.7 µM (inactive)
same,GI50,A549,1.84 µM (inactive)
same,GI50,A498,1.67 µM (inactive)
same,GI50,MOLT-4,0.476 µM (active)
same,GI50,SNB-19,1.59 µM (inactive)
same,GI50,SF-539,2.16 µM (inactive)
same,GI50,KM-20L2,1.21 µM (inactive)
same,GI50,OVCAR-5,2.03 µM (inactive)
same,GI50,XF498,1.55 µM (inactive)
same,GI50,UO-31,1.58 µM (inactive)
same,GI50,DMS-273,1.07 µM (active)
same,GI50,IGROV-1,1.73 µM (inactive)
same,GI50,SNB-78,1.61 µM (inactive)
same,GI50,COLO 205,1.11 µM (active)
CCOC(=O)C(C)NC(=O)N(C)C12CC3CC(CC(C3)C1)C2 (centres undefined),GI50,DMS-114,115 µM (inactive)
same,GI50,K562,169 µM (inactive)
same,GI50,SK-MEL-5,111 µM (inactive)
same,GI50,HT-29,281 µM (inactive)
same,GI50,NCI-H460,192 µM (inactive)
same,GI50,NCI-H522,135 µM (inactive)
same,GI50,SK-MEL-28,317 µM (inactive)
same,GI50,SW-620,218 µM (inactive)
same,GI50,HCC 2998,268 µM (inactive)
same,GI50,OVCAR-4,175 µM (inactive)
same,GI50,MCF7,139 µM (inactive)
same,GI50,Malme-3M,194 µM (inactive)
same,GI50,UACC-62,175 µM (inactive)
same,GI50,LOX IMVI,116 µM (inactive)
same,GI50,SK-OV-3,237 µM (inactive)
same,GI50,CAKI-1,231 µM (inactive)
same,GI50,HOP-62,316 µM (inactive)
same,GI50,CCRF-CEM,138 µM (inactive)
same,GI50,KM12,179 µM (inactive)
same,GI50,HCT-116,173 µM (inactive)
same,GI50,HOP-18,210 µM (inactive)
same,GI50,SF-295,203 µM (inactive)
same,GI50,U-251,308 µM (inactive)
same,GI50,HCT-15,187 µM
same,GI50,HL-60,> 96.8 µM (inactive)
same,GI50,SK-MEL-2,169 µM (inactive)
same,GI50,SF-268,319 µM (inactive)
same,GI50,NCI/ADR-RES,151 µM (inactive)
same,GI50,NCI-H226,233 µM (inactive)
same,GI50,UACC-257,133 µM (inactive)
same,GI50,DLD-1,50.7 µM (inactive)
same,GI50,HOP-92,20.7 µM (inactive)
same,GI50,NCI-H23,185 µM (inactive)
same,GI50,SN12C,385 µM (inactive)
same,GI50,M19-MEL,177 µM (inactive)
same,GI50,RXF 393,153 µM (inactive)
same,GI50,OVCAR-3,149 µM (inactive)
same,GI50,OVCAR-8,265 µM (inactive)
same,GI50,EKVX,450 µM (inactive)
same,GI50,RPMI-8226,125 µM (inactive)
same,GI50,SNB-75,77.4 µM (inactive)
same,GI50,A549,197 µM (inactive)
same,GI50,A498,116 µM (inactive)
same,GI50,MOLT-4,63.2 µM (inactive)
same,GI50,SNB-19,412 µM (inactive)
same,GI50,SF-539,344 µM (inactive)
same,GI50,KM-20L2,199 µM (inactive)
same,GI50,OVCAR-5,> 500 µM (inactive)
same,GI50,XF498,192 µM (inactive)
same,GI50,UO-31,175 µM (inactive)
same,GI50,DMS-273,209 µM (inactive)
same,GI50,IGROV-1,286 µM (inactive)
same,GI50,SNB-78,277 µM (inactive)
same,GI50,COLO 205,140 µM (inactive)
CC(=S)NNC(=O)c1ccncc1,GI50,LXFL 529,> 100 µM (inactive)
same,GI50,K562,> 100 µM (inactive)
same,GI50,SK-MEL-5,> 100 µM (inactive)
same,GI50,HT-29,> 100 µM (inactive)
same,GI50,NCI-H460,> 100 µM (inactive)
same,GI50,NCI-H522,> 100 µM (inactive)
same,GI50,SK-MEL-28,> 100 µM (inactive)
same,GI50,SW-620,> 100 µM (inactive)
same,GI50,HCC 2998,> 100 µM (inactive)
same,GI50,OVCAR-4,> 100 µM (inactive)
same,GI50,Malme-3M,> 100 µM (inactive)
same,GI50,SR,> 100 µM (inactive)
same,GI50,UACC-62,> 100 µM (inactive)
same,GI50,LOX IMVI,> 100 µM (inactive)
same,GI50,SK-OV-3,> 100 µM (inactive)
same,GI50,CAKI-1,> 100 µM (inactive)
same,GI50,HOP-62,> 100 µM (inactive)
same,GI50,CCRF-CEM,> 100 µM (inactive)
same,GI50,KM12,> 100 µM (inactive)
same,GI50,HCT-116,> 100 µM (inactive)
same,GI50,HOP-18,> 100 µM (inactive)
same,GI50,SF-295,> 100 µM (inactive)
same,GI50,U-251,> 100 µM (inactive)
same,GI50,HCT-15,> 100 µM
same,GI50,HL-60,> 100 µM (inactive)
same,GI50,ACHN,> 100 µM (inactive)
same,GI50,TK-10,> 100 µM (inactive)
same,GI50,SK-MEL-2,> 100 µM (inactive)
same,GI50,SF-268,> 100 µM (inactive)
same,GI50,NCI-H226,> 100 µM (inactive)
same,GI50,UACC-257,> 100 µM (inactive)
same,GI50,DLD-1,> 100 µM (inactive)
same,GI50,HOP-92,> 100 µM (inactive)
same,GI50,NCI-H23,> 100 µM (inactive)
same,GI50,M14,> 100 µM (inactive)
same,GI50,SN12C,> 100 µM (inactive)
same,GI50,M19-MEL,> 100 µM (inactive)
same,GI50,786-0,> 100 µM (inactive)
same,GI50,RXF 393,> 100 µM (inactive)
same,GI50,OVCAR-3,> 100 µM (inactive)
same,GI50,OVCAR-8,> 100 µM (inactive)
same,GI50,EKVX,> 100 µM (inactive)
same,GI50,SNB-75,> 100 µM (inactive)
same,GI50,A549,> 100 µM (inactive)
same,GI50,A498,> 100 µM (inactive)
same,GI50,MOLT-4,> 100 µM (inactive)
same,GI50,SNB-19,> 100 µM (inactive)
same,GI50,SF-539,> 100 µM (inactive)
same,GI50,KM-20L2,> 100 µM (inactive)
same,GI50,OVCAR-5,> 100 µM (inactive)
same,GI50,XF498,> 100 µM (inactive)
same,GI50,UO-31,> 100 µM (inactive)
same,GI50,DMS-273,> 100 µM (inactive)
same,GI50,IGROV-1,> 100 µM (inactive)
same,GI50,SNB-78,> 100 µM (inactive)
same,GI50,COLO 205,> 100 µM (inactive)
